Laboratory results: PubChem BioAssay AID248 (DTP/NCI, 2004)
“And” between values parts separate entries of the source, which are not always exact repeats. Identical values can stand only once. Inconclusive results and toxic doses are left out. Cut-off read from the data, not from the text of the source: active = T/C of 150% or more; inactive = T/C below 125%.

System: L1210 leukemia ip in BDF1 mice, survival T/C
Assay: NCI In Vivo Anticancer Drug Screen. Data for tumor model L1210 Leukemia (intraperitoneal) in B6D2F1 (BDF1) mice
Conditions: endpoint: mean survival time, higher = longer survival
Outline: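 Mice bearing the transplanted tumor received compound or vehicle. Survival of the treated group was divided by that of the vehicle-treated control group to give the ratio.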

[1] = dose: 100.0 mg/kg/injection, schedule: Q01DX009 (ip), vehicle: Klucel (hydroxypropylcellulose) (HPC)
[2] = dose: 100.0 mg/kg/injection, schedule: Q04DX003 (ip), vehicle: Klucel (hydroxypropylcellulose) (HPC)
[3] = dose: 200.0 mg/kg/injection, schedule: Q01DX009 (ip), vehicle: Klucel (hydroxypropylcellulose) (HPC)
[4] = dose: 200.0 mg/kg/injection, schedule: Q04DX003 (ip), vehicle: Klucel (hydroxypropylcellulose) (HPC)
[5] = dose: 400.0 mg/kg/injection, schedule: Q04DX003 (ip), vehicle: Klucel (hydroxypropylcellulose) (HPC)
[6] = dose: 25.0 mg/kg/injection, schedule: Q04DX003 (ip), vehicle: Klucel (hydroxypropylcellulose) (HPC)
[7] = dose: 50.0 mg/kg/injection, schedule: Q01DX009 (ip), vehicle: Klucel (hydroxypropylcellulose) (HPC)
[8] = dose: 50.0 mg/kg/injection, schedule: Q04DX003 (ip), vehicle: Klucel (hydroxypropylcellulose) (HPC)
[9] = dose: 100.0 mg/kg/injection, schedule: Q04DX002 (ip), vehicle: saline
[10] = dose: 200.0 mg/kg/injection, schedule: Q04DX002 (ip), vehicle: saline
[11] = dose: 100.0 mg/kg/injection, schedule: Q01DX005 (ip), vehicle: saline
[12] = dose: 200.0 mg/kg/injection, schedule: Q01DX005 (ip), vehicle: saline
[13] = dose: 50.0 mg/kg/injection, schedule: Q04DX003 (ip), vehicle: saline

Measured: T/C

CC1(CC(=O)O)CCc2ccccc2C1=O (stereo unspecified)
inactive: [1] 98 % of control | [2] 98 % of control | [3] 94 % of control | [4] 96 % of control | dose: 400.0 mg/kg/injection, schedule: Q01DX009 (ip), vehicle: Klucel (hydroxypropylcellulose) (HPC) 100 % of control | [5] 102 % of control

O=c1oc2ccc(Cl)cc2n1CN1CCOCC1
inactive: dose: 100.0 mg/kg/injection, schedule: Q01DX001 (ip), vehicle: carboxymethylcellulose (CMC) 96 % of control | dose: 200.0 mg/kg/injection, schedule: Q01DX001 (ip), vehicle: carboxymethylcellulose (CMC) 96 % of control | dose: 400.0 mg/kg/injection, schedule: Q01DX001 (ip), vehicle: carboxymethylcellulose (CMC) 88 % of control

c1ccc(C(C2=NCCN2)c2ccccc2)cc1
inactive: [6] 101 % of control | [7] 102 % of control | [8] 106 % of control | [1] 91 % of control | [2] 101 % of control and 103 % of control

CC(N)CCC(O)C(=O)O (stereo unspecified)
inactive: [9] 95 % of control | [10] 100 % of control | dose: 400.0 mg/kg/injection, schedule: Q04DX002 (ip), vehicle: saline 107 % of control

NC(=O)c1n[nH]c(C2OCC(O)C2O)c1I (stereo unspecified)
inactive: [11] 100 % of control | [12] 108 % of control

CC(=O)Nc1ccc(NC(=O)NCCCl)cc1
inactive: [7] 96 % of control | [1] 99 % of control | [2] 103 % of control | [3] 89 % of control | [4] 100 % of control

CC1(C)NC(=O)N(CCCl)C1=O
inactive: [13] 97 % of control | dose: 100.0 mg/kg/injection, schedule: Q01DX009 (ip), vehicle: saline 96 % of control | dose: 100.0 mg/kg/injection, schedule: Q04DX003 (ip), vehicle: saline 92 % of control | dose: 200.0 mg/kg/injection, schedule: Q01DX009 (ip), vehicle: saline 96 % of control | dose: 200.0 mg/kg/injection, schedule: Q04DX003 (ip), vehicle: saline 97 % of control | dose: 400.0 mg/kg/injection, schedule: Q01DX009 (ip), vehicle: saline 98 % of control | dose: 400.0 mg/kg/injection, schedule: Q04DX003 (ip), vehicle: saline 103 % of control

O=c1[nH]nc(-c2ccc(C(F)(F)F)cc2)s1
inactive: dose: 75.0 mg/kg/injection, schedule: Q01DX001 (ip), vehicle: saline 95 % of control | dose: 75.0 mg/kg/injection, schedule: Q04DX003 (ip), vehicle: saline 93 % of control | dose: 150.0 mg/kg/injection, schedule: Q01DX001 (ip), vehicle: saline 104 % of control | dose: 150.0 mg/kg/injection, schedule: Q04DX003 (ip), vehicle: saline 98 % of control | dose: 300.0 mg/kg/injection, schedule: Q01DX001 (ip), vehicle: saline 97 % of control | dose: 300.0 mg/kg/injection, schedule: Q04DX003 (ip), vehicle: saline 98 % of control

C[C@]12CCC(=O)C=C1[C@@H](F)C[C@@H]1[C@@H]2[C@@H](O)C[C@@]2(C)[C@H]1CC[C@]2(O)C(=O)CO
inactive: dose: 25.0 mg/kg/injection, schedule: Q01DX015 (ip), vehicle: carboxymethylcellulose (CMC) 106 % of control | dose: 50.0 mg/kg/injection, schedule: Q01DX015 (ip), vehicle: carboxymethylcellulose (CMC) 96 % of control | dose: 100.0 mg/kg/injection, schedule: Q01DX001 (sc), vehicle: steriod suspending solution 117 % of control | dose: 100.0 mg/kg/injection, schedule: Q01DX015 (ip), vehicle: carboxymethylcellulose (CMC) 110 % of control | dose: 200.0 mg/kg/injection, schedule: Q01DX001 (sc), vehicle: steriod suspending solution 89 % of control | dose: 200.0 mg/kg/injection, schedule: Q01DX015 (ip), vehicle: carboxymethylcellulose (CMC) 98 % of control | dose: 400.0 mg/kg/injection, schedule: Q01DX001 (sc), vehicle: steriod suspending solution 100 % of control | dose: 400.0 mg/kg/injection, schedule: Q01DX015 (ip), vehicle: carboxymethylcellulose (CMC) 86 % of control | dose: 800.0 mg/kg/injection, schedule: Q01DX001 (sc), vehicle: steriod suspending solution 105 % of control | dose: 800.0 mg/kg/injection, schedule: Q01DX015 (ip), vehicle: saline 102 % of control

N=c1c2n[nH]nc2ncn1O
inactive: dose: 75.0 mg/kg/injection, schedule: Q01DX001 (ip), vehicle: other 92 % of control | dose: 150.0 mg/kg/injection, schedule: Q01DX001 (ip), vehicle: other 110 % of control | dose: 300.0 mg/kg/injection, schedule: Q01DX001 (ip), vehicle: other 101 % of control

CCOC(=O)CNCc1cccc(Br)c1
inactive: dose: 50.0 mg/kg/injection, schedule: Q01DX005 (ip), vehicle: saline 98 % of control | [11] 112 % of control | [12] 102 % of control | dose: 400.0 mg/kg/injection, schedule: Q01DX005 (ip), vehicle: saline 100 % of control

O=C(CBr)c1cc2ncccc2c2ccccc12
inactive: dose: 12.5 mg/kg/injection, schedule: Q01DX009 (ip), vehicle: other 90 % of control | dose: 25.0 mg/kg/injection, schedule: Q01DX009 (ip), vehicle: other 94 % of control | dose: 50.0 mg/kg/injection, schedule: Q01DX009 (ip), vehicle: other 102 % of control

CSCC(C)(C)NC(=O)NCCCl
inactive: dose: 100.0 mg/kg/injection, schedule: Q04DX002 (ip), vehicle: Klucel (hydroxypropylcellulose) (HPC) 89 % of control | dose: 200.0 mg/kg/injection, schedule: Q04DX002 (ip), vehicle: Klucel (hydroxypropylcellulose) (HPC) 89 % of control

O=[N+]([O-])c1ccc(C=Nc2ccc(OCc3ccccc3)cc2)s1
inactive: [2] 91 % of control | [4] 88 % of control | [5] 91 % of control

CCOC(=O)C(C(=O)CC)C(COC)C(=O)OC (stereo unspecified)
inactive: dose: 100.0 mg/kg/injection, schedule: Q01DX001 (ip), vehicle: other 92 % of control | dose: 200.0 mg/kg/injection, schedule: Q01DX001 (ip), vehicle: other 96 % of control | dose: 400.0 mg/kg/injection, schedule: Q01DX001 (ip), vehicle: other 97 % of control

CCN=C(N)c1ccc(NC(=O)Nc2ccc(NC(=O)Nc3ccc(C(N)=NCC)cc3)cc2)cc1
inactive: dose: 0.31 mg/kg/injection, schedule: Q01DX Z (ip), vehicle: carboxymethylcellulose (CMC) 98 % of control | dose: 0.62 mg/kg/injection, schedule: Q01DX Z (ip), vehicle: carboxymethylcellulose (CMC) 97 % of control | dose: 1.25 mg/kg/injection, schedule: Q01DX Z (ip), vehicle: carboxymethylcellulose (CMC) 90 % of control | dose: 2.5 mg/kg/injection, schedule: Q01DX Z (ip), vehicle: carboxymethylcellulose (CMC) 107 % of control

CCCCCP(=O)(O)O
inactive: [9] 92 % of control | [10] 99 % of control

O=C(O)CNC(=O)CNC(=O)C(Br)Cc1ccccc1 (stereo unspecified)
inactive: [1] 98 % of control | dose: 100.0 mg/kg/injection, schedule: Q04DX003 (ip), vehicle: saline with Tween-80 101 % of control | [3] 88 % of control | dose: 200.0 mg/kg/injection, schedule: Q04DX003 (ip), vehicle: saline with Tween-80 95 % of control | dose: 400.0 mg/kg/injection, schedule: Q04DX003 (ip), vehicle: saline with Tween-80 100 % of control

CCOC(=O)c1ccc(NC(=S)NC(=O)c2ccc(Cl)cc2Cl)cc1
inactive: dose: 200.0 mg/kg/injection, schedule: Q01DX009 (ip), vehicle: saline with Tween-80 88 % of control | dose: 400.0 mg/kg/injection, schedule: Q01DX009 (ip), vehicle: saline with Tween-80 88 % of control

CN(C)CCOC(c1ccccc1)c1ccccc1
inactive: dose: 3.12 mg/kg/injection, schedule: Q01DX009 (ip), vehicle: saline 92 % of control and 96 % of control | dose: 6.25 mg/kg/injection, schedule: Q01DX009 (ip), vehicle: saline 102 % of control and 107 % of control | dose: 12.5 mg/kg/injection, schedule: Q01DX009 (ip), vehicle: saline 100 % of control and 114 % of control | dose: 25.0 mg/kg/injection, schedule: Q01DX009 (ip), vehicle: saline 100 % of control and 102 % of control | dose: 25.0 mg/kg/injection, schedule: Q04DX003 (ip), vehicle: saline 97 % of control | dose: 50.0 mg/kg/injection, schedule: Q01DX009 (ip), vehicle: saline 117 % of control and 91 % of control | [13] 111 % of control

Cc1cc(C(=O)O)c(C)[nH]1
inactive: [6] 105 % of control | [8] 100 % of control | dose: 75.0 mg/kg/injection, schedule: Q04DX003 (ip), vehicle: Klucel (hydroxypropylcellulose) (HPC) 101 % of control | [2] 93 % of control | [4] 95 % of control | [5] 101 % of control
